Assays:
[1] = molecular target: skeletal myofibrils (myosin ATPase); test: Skeletal Myofibril ATPase Assay; assay type: biochemical
Summary of the method: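 Rates of NADH loss (A340, kinetic read over 45 min) report ADP generation by myofibrillar myosin, coupled through pyruvate kinase and lactate dehydrogenase; pCa buffer at pH 7.0. IC50 fitted by 4-parameter logistic after normalizing to 1% DMSO controls; cardiac myofibrils served for selectivity.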

[2] = molecular target: T1, cardiac myofibrils (myosin ATPase); test: Cardiac Myofibril ATPase Assay (counter screen); assay type: biochemical; conditions: myofibrils 1.0 mg/mL, KCl omitted
T1 construct: frozen myofibril pellets obtained from cardiac tissue; from tissue
Summary of the method: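 Myosin ATPase rate followed via NADH disappearance at 340 nm, coupled through pyruvate kinase and lactate dehydrogenase, using cardiac myofibril pellets (final 1.0 mg/mL) without KCl. IC50 values reflect rate reduction compared with vehicle-treated wells.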

T1 sequence (P12883 whole entry): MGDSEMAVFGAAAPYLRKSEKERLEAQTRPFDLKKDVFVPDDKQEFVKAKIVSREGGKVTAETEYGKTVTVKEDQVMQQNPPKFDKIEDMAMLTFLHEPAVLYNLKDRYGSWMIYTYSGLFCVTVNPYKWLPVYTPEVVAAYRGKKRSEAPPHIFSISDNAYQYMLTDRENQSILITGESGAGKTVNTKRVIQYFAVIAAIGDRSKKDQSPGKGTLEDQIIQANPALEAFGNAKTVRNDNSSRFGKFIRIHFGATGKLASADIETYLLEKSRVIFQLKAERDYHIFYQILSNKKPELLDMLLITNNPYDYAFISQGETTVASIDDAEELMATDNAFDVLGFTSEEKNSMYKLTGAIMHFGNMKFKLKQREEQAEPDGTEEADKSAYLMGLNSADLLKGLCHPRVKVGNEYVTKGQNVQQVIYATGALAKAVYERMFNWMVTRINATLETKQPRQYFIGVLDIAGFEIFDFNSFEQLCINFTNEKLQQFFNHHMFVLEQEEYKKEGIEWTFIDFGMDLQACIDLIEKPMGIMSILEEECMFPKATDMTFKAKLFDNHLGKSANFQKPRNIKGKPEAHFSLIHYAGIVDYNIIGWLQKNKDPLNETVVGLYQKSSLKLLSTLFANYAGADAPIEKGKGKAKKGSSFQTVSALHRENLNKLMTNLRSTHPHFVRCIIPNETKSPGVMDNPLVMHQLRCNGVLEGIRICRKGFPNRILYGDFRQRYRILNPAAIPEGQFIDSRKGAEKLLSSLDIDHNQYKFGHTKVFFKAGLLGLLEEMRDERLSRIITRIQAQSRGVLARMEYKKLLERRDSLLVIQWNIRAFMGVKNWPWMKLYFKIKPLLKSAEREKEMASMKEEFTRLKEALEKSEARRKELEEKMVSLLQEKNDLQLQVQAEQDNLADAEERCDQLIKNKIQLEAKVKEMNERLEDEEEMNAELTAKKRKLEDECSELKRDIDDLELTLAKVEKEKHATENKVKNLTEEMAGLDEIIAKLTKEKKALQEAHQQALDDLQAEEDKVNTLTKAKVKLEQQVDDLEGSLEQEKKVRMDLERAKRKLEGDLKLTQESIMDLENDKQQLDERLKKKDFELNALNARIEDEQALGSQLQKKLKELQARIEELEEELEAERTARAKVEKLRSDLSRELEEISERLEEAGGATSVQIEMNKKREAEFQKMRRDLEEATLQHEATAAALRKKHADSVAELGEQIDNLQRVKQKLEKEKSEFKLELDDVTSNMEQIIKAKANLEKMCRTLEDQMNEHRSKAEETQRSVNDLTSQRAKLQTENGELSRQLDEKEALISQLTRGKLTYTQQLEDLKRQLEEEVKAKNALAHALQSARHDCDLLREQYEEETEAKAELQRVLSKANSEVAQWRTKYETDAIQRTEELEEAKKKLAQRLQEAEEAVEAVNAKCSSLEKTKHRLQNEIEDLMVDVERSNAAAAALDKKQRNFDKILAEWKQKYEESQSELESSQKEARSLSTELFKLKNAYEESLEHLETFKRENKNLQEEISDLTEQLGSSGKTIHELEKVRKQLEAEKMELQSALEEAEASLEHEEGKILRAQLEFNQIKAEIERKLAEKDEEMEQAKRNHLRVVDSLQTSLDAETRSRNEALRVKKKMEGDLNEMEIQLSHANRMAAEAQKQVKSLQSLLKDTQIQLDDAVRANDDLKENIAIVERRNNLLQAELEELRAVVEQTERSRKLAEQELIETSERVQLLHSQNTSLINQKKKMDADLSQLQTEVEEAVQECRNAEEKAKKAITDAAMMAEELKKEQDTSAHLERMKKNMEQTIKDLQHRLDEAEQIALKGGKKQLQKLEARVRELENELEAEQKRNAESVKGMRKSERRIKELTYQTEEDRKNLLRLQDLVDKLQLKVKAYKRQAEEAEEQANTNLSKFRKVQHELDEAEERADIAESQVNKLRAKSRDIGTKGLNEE
T1 sequence (P08590 whole entry partner): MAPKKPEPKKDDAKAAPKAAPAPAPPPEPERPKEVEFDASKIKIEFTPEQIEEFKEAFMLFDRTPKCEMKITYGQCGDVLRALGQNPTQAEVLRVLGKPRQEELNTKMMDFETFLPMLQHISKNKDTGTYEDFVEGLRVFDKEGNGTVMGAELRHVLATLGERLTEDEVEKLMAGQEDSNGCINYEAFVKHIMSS
T1 sequence (P10916 whole entry partner): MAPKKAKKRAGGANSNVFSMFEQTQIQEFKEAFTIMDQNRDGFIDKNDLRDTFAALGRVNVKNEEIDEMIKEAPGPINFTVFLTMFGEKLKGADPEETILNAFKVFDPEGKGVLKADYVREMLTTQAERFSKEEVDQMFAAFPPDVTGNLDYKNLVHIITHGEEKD

SMILES	IC50 ([1]; Table 4B) [µM]	IC50 ([2]; Table 5B) [µM]	IC50 ([1]; Table 4C) [µM]	IC50 ([2]; Table 5C) [µM]
CCCNC(=O)Cn1nc(-c2ccc(OC(F)F)cc2)ccc1=O [II-12, 2-(3-(4-(difluoromethoxy)phenyl)-6-oxopyridazin-1(6H)-yl)-N-propylacetamide]	10 to 100	> 100		
CC(C)CNC(=O)Cn1nc(-c2ccc(OC(F)F)cc2)ccc1=O [II-13, 2-(3-(4-(difluoromethoxy)phenyl)-6-oxopyridazin-1(6H)-yl)-N-isobutylacetamide]	10 to 100	> 100		
CC(=O)Nc1ccc(-c2ccc(=O)n(CC(=O)NC(C)C)n2)cc1 [II-14, 2-(3-(4-acetamidophenyl)-6-oxopyridazin-1(6H)-yl)-N-isopropylacetamide]	10 to 100	> 100		
O=C(Cn1nc(-c2ccc(OC(F)F)cc2)ccc1=O)NCC(F)F [II-15, N-(2,2-difluoroethyl)-2-(3-(4-(difluoromethoxy)phenyl)-6-oxopyridazin-1(6H)-yl)acetamide]	10 to 100	> 100		
CC(C)(C)NC(=O)Cn1nc(-c2ccc(OC(F)F)cc2)ccc1=O [II-16, N-(tert-butyl)-2-(3-(4-(difluoromethoxy)phenyl)-6-oxopyridazin-1(6H)-yl)acetamide]	10 to 100	> 100		
CCCCNC(=O)Cn1nc(-c2ccc(OC(F)F)cc2)ccc1=O [II-17, N-butyl-2-(3-(4-(difluoromethoxy)phenyl)-6-oxopyridazin-1(6H)-yl)acetamide]	10 to 100	> 100		
O=C(Cn1nc(-c2ccc(OC(F)F)cc2)ccc1=O)NCC1CCC1 [II-18, N-(cyclobutylmethyl)-2-(3-(4-(difluoromethoxy)phenyl)-6-oxopyridazin-1(6H)-yl)acetamide]	10 to 100	> 100		
CCNC(=O)Cn1nc(-c2ccc(OC(F)F)cc2)c(C)cc1=O [II-19, 2-(3-(4-(difluoromethoxy)phenyl)-4-methyl-6-oxopyridazin-1(6H)-yl)-N-ethylacetamide]	10 to 100	> 100		
O=C(Cn1nc(-c2ccc(OCC(F)(F)F)cc2)ccc1=O)NCc1ccc(O)nc1 [II-20, N-((6-hydroxypyridin-3-yl)methyl)-2-(6-oxo-3-(4-(2,2,2-trifluoroethoxy)phenyl)pyridazin-1(6H)-yl)acetamide]	> 100	> 100		
CCNC(=O)Cn1nc(-c2ccc(OC(F)F)cc2)cc(C)c1=O [II-21, 2-(3-(4-(difluoromethoxy)phenyl)-5-methyl-6-oxopyridazin-1(6H)-yl)-N-ethylacetamide]	> 100	> 100		
O=C(Cn1nc(-c2ccc(OCC(F)(F)F)cc2)ccc1=O)N1CC(c2ccccc2)C1 [II-22, 2-(2-oxo-2-(3-phenylazetidin-1-yl)ethyl)-6-(4-(2,2,2-trifluoroethoxy)phenyl)pyridazin-3(2H)-one]	< 10	> 100		
O=C(Cn1nc(-c2ccc(OCC(F)(F)F)cc2)ccc1=O)N1CCC1c1ccccc1 (stereo not shown) [II-23, 2-(2-oxo-2-(2-phenylazetidin-1-yl)ethyl)-6-(4-(2,2,2-trifluoroethoxy)phenyl)pyridazin-3(2H)-one]	< 10	> 100		
O=C(Cn1nc(-c2ccc(OCC(F)(F)F)cc2)ccc1=O)NCc1ccc(CO)cc1 [II-24, N-(4-(hydroxymethyl)benzyl)-2-(6-oxo-3-(4-(2,2,2-trifluoroethoxy)phenyl)pyridazin-1(6H)-yl)acetamide]	> 100	> 100		
O=C(Cn1nc(-c2ccc(OCC(F)(F)F)cc2)ccc1=O)NCc1ccncc1Cl [II-25, N-((3-chloropyridin-4-yl)methyl)-2-(6-oxo-3-(4-(2,2,2-trifluoroethoxy)phenyl)pyridazin-1(6H)-yl)acetamide]	> 100	> 100		
O=C(Cn1nc(-c2ccc(OCC(F)(F)F)cc2)ccc1=O)NCc1ccc[nH]c1=O [II-26, N-((2-oxo-1,2-dihydropyridin-3-yl)methyl)-2-(6-oxo-3-(4-(2,2,2-trifluoroethoxy)phenyl)pyridazin-1(6H)-yl)acetamide]	10 to 100	> 100		
CCOc1ccc(-c2ccc(=O)n(CC(=O)NCc3ccccc3Cl)n2)cc1 [IIIa-1, N-(2-chlorobenzyl)-2-(3-(4-ethoxyphenyl)-6-oxopyridazin-1(6H)-yl)acetamide]			< 10	> 100
CC(C)Oc1ccc(-c2ccc(=O)n(CC(=O)NCc3ccccc3Cl)n2)cc1 [IIIa-2, N-(2-chlorobenzyl)-2-(3-(4-isopropoxyphenyl)-6-oxopyridazin-1(6H)-yl)acetamide]			< 10	> 100
CCNC(=O)Cn1nc(-c2ccc(OC)cc2)ccc1=O [IIIa-3, N-ethyl-2-(3-(4-methoxyphenyl)-6-oxopyridazin-1(6H)-yl)acetamide]			< 10	> 100
COc1ccc(-c2ccc(=O)n(CC(=O)NCC3CCCCC3)n2)cc1 [IIIa-4]			< 10	> 100

SMILES	IC50 ([1]; Table 4B) [µM]	IC50 ([2]; Table 5B) [µM]	IC50 ([1]; Table 4C) [µM]	IC50 ([2]; Table 5C) [µM]
COc1ccc(-c2ccc(=O)n(CC(=O)NCCc3ccccc3)n2)cc1 [IIIa-5, 2-(3-(4-methoxyphenyl)-6-oxopyridazin-1(6H)-yl)-N-phenethylacetamide]			< 10	> 100
CCOc1ccc(-c2ccc(=O)n(CC(=O)NC(C)C)n2)cc1 [IIIa-6, 2-(3-(4-ethoxyphenyl)-6-oxopyridazin-1(6H)-yl)-N-isopropylacetamide]			< 10	> 100
COc1ccc(-c2ccc(=O)n(CC(=O)NCc3cc(F)ccc3Cl)n2)cc1 [IIIa-7, N-(2-chloro-5-fluorobenzyl)-2-(3-(4-methoxyphenyl)-6-oxopyridazin-1(6H)-yl)acetamide]			< 10	> 100
COc1ccc(-c2ccc(=O)n(CC(=O)NCc3cccc(Cl)c3)n2)cc1 [IIIa-8, N-(3-chlorobenzyl)-2-(3-(4-methoxyphenyl)-6-oxopyridazin-1(6H)-yl)acetamide]			< 10	> 100
COc1ccc(-c2ccc(=O)n(CC(=O)NC(C)(C)c3ccccc3)n2)cc1 [IIIa-9, 2-(3-(4-methoxyphenyl)-6-oxopyridazin-1(6H)-yl)-N-(2-phenylpropan-2-yl)acetamide]			< 10	> 100
COc1ccc(-c2ccc(=O)n(CC(=O)NCc3cccc(C)c3)n2)cc1 [IIIa-10, 2-(3-(4-methoxyphenyl)-6-oxopyridazin-1(6H)-yl)-N-(3-methylbenzyl) acetamide]			< 10	> 100
COc1ccc(-c2ccc(=O)n(CC(=O)NCc3ccccc3C(F)(F)F)n2)cc1 [IIIa-11, 2-(3-(4-methoxyphenyl)-6-oxopyridazin-1(6H)-yl)-N-(2-(trifluoromethyl)benzyl)acetamide]			< 10	> 100
COc1ccc(-c2ccc(=O)n(CC(=O)NCc3ccc(Cl)cc3Cl)n2)cc1 [IIIa-12, N-(2,4-dichlorobenzyl)-2-(3-(4-methoxyphenyl)-6-oxopyridazin-1(6H)-yl)acetamide]			< 10	> 100
COc1ccc(-c2ccc(=O)n(CC(=O)NCc3ccccc3Cl)n2)c(F)c1 [IIIa-13, N-(2-chlorobenzyl)-2-(3-(2-fluoro-4-methoxyphenyl)-6-oxopyridazin-1(6H)-yl)acetamide]			< 10	> 100
COc1ccc(-c2ccc(=O)n(CC(=O)NCc3ccc(C)cc3)n2)cc1 [IIIa-15, 2-(3-(4-methoxyphenyl)-6-oxopyridazin-1(6H)-yl)-N-(4-methylbenzyl) acetamide]			< 10	> 100
COc1ccc(-c2ccc(=O)n(CC(=O)NCc3ccccc3C)n2)cc1 [IIIa-16, 2-(3-(4-methoxyphenyl)-6-oxopyridazin-1(6H)-yl)-N-(2-methylbenzyl) acetamide]			< 10	> 100
COc1ccc(-c2ccc(=O)n(CC(=O)NCc3ccc(Cl)cc3)n2)cc1 [IIIa-17, N-(4-chlorobenzyl)-2-(3-(4-methoxyphenyl)-6-oxopyridazin-1(6H)-yl)acetamide]			< 10	> 100
CCc1ccc(-c2ccc(=O)n(CC(=O)NCc3ccccc3Cl)n2)cc1 [IIIa-18, N-(2-chlorobenzyl)-2-(3-(4-ethylphenyl)-6-oxopyridazin-1(6H)-yl)acetamide]			< 10	> 100
CCNC(=O)Cn1nc(-c2ccc(C3CC3)cc2)ccc1=O [IIIa-19]			< 10	> 100
COc1ccc(-c2ccc(=O)n(CC(=O)NC3(c4ccccc4Cl)CC3)n2)cc1 [IIIa-20, N-(1-(2-chlorophenyl)cyclopropyl)-2-(3-(4-methoxyphenyl)-6-oxopyridazin-1(6H)-yl)acetamide]			10 to 100	> 100
CNC(=O)Cn1nc(-c2ccc(OC)cc2)ccc1=O [IIIa-21, 2-(3-(4-methoxyphenyl)-6-oxopyridazin-1(6H)-yl)-N-methylacetamide]			10 to 100	> 100
COc1ccc(-c2ccc(=O)n(CC(=O)NCc3ccccc3Cl)n2)c(C)c1 [IIIa-22, N-(2-chlorobenzyl)-2-(3-(4-methoxy-2-methylphenyl)-6-oxopyridazin-1(6H)-yl)acetamide]			10 to 100	> 100
COc1ccc(-c2ccc(=O)n(CC(=O)NCc3ccccc3Cl)n2)cc1C [IIIa-23, N-(2-chlorobenzyl)-2-(3-(4-methoxy-3-methylphenyl)-6-oxopyridazin-1(6H)-yl)acetamide]			10 to 100	> 100
COc1ccc(-c2ccc(=O)n(CC(=O)NCc3ccccc3Cl)n2)cc1F [IIIa-24, N-(2-chlorobenzyl)-2-(3-(3-fluoro-4-methoxyphenyl)-6-oxopyridazin-1(6H)-yl)acetamide]			10 to 100	> 100
